Experimental data published in patent publication US20080146630A1, “CRYSTAL FORM OF 2-(3-FLUORO-4-HYDROXYPHENYL)-7-VINYL-1,3-BENZOXAZOL-5-OL” (WYETH, priority 2006, published 2008).

Experiment: Conversion of Form E on suspending and stirring in solvent (slurry)
Format: physicochemical
Source text: The anhydrate crystal form (Form E) can be converted to other crystal forms under suitable conditions.

crystal form conversion after suspension and stirring (suspended and stirred in water at room temperature for seven days): converted to a hydrate crystal form
SMILES: C=Cc1cc(O)cc2nc(-c3ccc(O)c(F)c3)oc12 [Form E, 2-(3-fluoro-4-hydroxyphenyl)-7-vinyl-1,3-benzoxazol-5-ol]
crystal form conversion after suspension and stirring (suspended and stirred in acetone at room temperature for seven days): another anhydrate crystal form is obtained | crystal form conversion after suspension and stirring (suspended and stirred in ethanol at room temperature for seven days): another anhydrate crystal form is obtained
